Legend:
HO-1 protein = experiment: Induction of HO-1 protein in HT22 cells (Western blot); assay type: cell-based; settings: 24 h, at NEPP concentration that prevented neuronal cell death
Experimental: HT22 cells (Satoh et al., Eur. J. Neurosci. 17:2249-2255, 2003; Satoh et al., J. Neurochem. 77:50-62, 2001; Sagara et al., J. Biol. Chem. 277:36204-36215, 2002) and primary cortical neurons (Bonfoco et al., Proc. Natl. Acad. Sci. USA 92:7162-7166, 1995) were cultured as described.
These assays were performed as described (Gu et al., Science 297:1186-1190, 2002) by using the following antibodies: anti-HO-1 (SPA895, 1:1000, Santa Cruz Biotechnology), anti-Keap1 (1:100, Santa Cruz Biotechnology), or anti-actin (1:5,000, Oncogene Research Products, San Diego).
Thereafter, cell lysates (10 μg per lane) were subjected to SDS-PAGE and probed with anti-HO-1 or anti-β-actin.

MEF2-binding site = experiment: Enhancer element luciferase reporter p3xMEF2luc; assay type: cell-based; settings: NEPP11 2 μM
Experimental: Because the E1 and E2 regions also contain other enhancer elements, we tested the effects of NEPP11 (2 μM) on the expression of luciferase activity derived from these elements, including the cAMP-responsive element (CRE; p3xCREluc), AP-1 binding site (p3xAP1luc), NF-κB binding site (p3xNF-κBluc), NFAT-binding site (p3xNFATluc), ETS-binding site (p3xETSluc), and MEF2-binding site (p3xMEF2luc).

Keap1 = biological target: T1, Keap1 (Mus musculus, UniProt Q9Z2X8); experiment: Binding of CAB/CA to Keap1 and Keap1 deletion mutants (streptavidin precipitation); settings: PC12h cells transfected with Keap1 (non-HA-tagged)
T1 construct: expressed in transfected cells; host or cells: COS7 cells
Experimental: (3) Expression vectors for HA-tagged Keap1 and Keap1 deletion mutants. These constructs were obtained from Dr. Akira Kobayashi of Tohoku University (Hosoya et al., J. Biol. Chem. 29:27244-27250, 2006; Kobayashi et al., Mol. Cell. Biol. 26:221-229, 2006).
Immunoprecipitation with agarose-immobilized streptavidin or antibody. PC12h cells (CAB- or vehicle-treated) were lysed in RIPA buffer supplemented with protease inhibitor cocktail. The lysates were centrifuged at 15,000 rpm for 10 min at 4° C., after which the supernatants were incubated with agarose-immobilized streptavidin at 4° C. for 1 h. Alternatively, for immunoprecipitation with anti-Keap1, the cell lysates were incubated with the antibody at 4° C. overnight, after which protein A immobilized on Sepharose CL-4B was added and incubation continued at 4° C. for 1 h. Then, the complexes were washed three times with rinse buffer (150 mM NaCl, 50 mM Tris-HCl [pH 7.5], 0.1% NP-40, 1 mM EDTA, and 0.02% NaN3). SDS sample buffer was added, the mixture was boiled for 5 min, and the supernatants were subjected to SDS-PAGE. Immunoblotting was then performed as described above.
CA activates the Keap1/Nrf2/ARE pathway. […] The initial reaction in this activation cascade is the binding of an electrophilic compound to specific cysteines on Keap1 protein (Hong et al., Chem. Res. Toxicol. 18: 1917-1926, 2005; Eggler et al., Proc. Nat. Acad. Sci. USA 102:10070-10075, 2005; Zhang et al., Mol. Cell. Biol. 10941-10953, 2004). Such binding initiates a cellular transcription pathway leading to induction of phase 2 enzymes (Talalay, Biofactors 12:5-11, 2000; Padmanabham et al., Mol. Cell 21:689-700, 2006; Itoh et al., Free Radic. Biol. Med. 36:1208-1213, 2004). Therefore, we examined the domains of Keap1 (designated BTB, IVR, and DGR) to determine those essential for binding to CA. Accordingly, for co-immunoprecipitation experiments, we transfected COS7 cells with DNA expressing either HA-tagged wild type Keap1 protein (HA-WT Keap1) or various deletion mutants of tagged Keap1 protein (HA-ΔBTB Keap1, HA-ΔIVR Keap1, and HA-ΔDGR Keap1). The transfected COS7 cells were then treated with vehicle or 10 μM CAB and lysed. We quantified the expression level of Keap1 protein in total cell lysates with anti-HA antibody. Each Keap1 mutant protein was expressed at a similar level of the predicted molecular weight (57 kDa for HA-ΔBTB Keap1, 53 kDa for HA-ΔIVR Keap1, and 37 kDa for HA-ΔDGR Keap1). Next, in order to detect Keap1/CAB complexes, we immunoprecipitated cell lysates with streptavidin and probed with anti-HA antibody. […] The requirement of the BTB domain for CA binding is in accord with prior results (Hong et al., Chem. Res. Toxicol. 18:1917-1926, 2005; Eggler et al., Proc. Nat. Acad. Sci. USA 102:10070-10075, 2005; Zhang et al., Mol. Cell. Biol. 24:10941-10953, 2004).
After binding of the electrophilic quinone-form of CA to Keap1 protein, activation of the Keap1/Nrf2 pathway requires nuclear translocation of Nrf2 (Talalay, Biofactors 12:5-11, 2000; Padmanabham et al., Mol. Cell 21:689-700, 2006; Itoh et al., Free Radic. Biol. Med. 36:1208-1213, 2004). Thus, we next examined the intracellular distribution of Nrf2 protein in COS7 cells by immunofluorescence.

HO-1 and γ-GCS = experiment: Phase 2 enzyme induction in brain (RT-PCR); assay type: in vivo, mouse; settings: food containing 0.03% CA for a week
Experimental: RT-PCR. In order to examine phase 2 gene induction by CA in PC12h cells and brain lysates, RT-PCR of total RNA from cortical cultures was performed using the following primer pairs (Hosoya et al., J. Bioi. Chern. 29:27244-27250, 2005; Kobayashi et al., Mol. Cell. Biol. 26:221-229, 2006): CypA (89 bp), 5′-ACAGGTCCTGGCATCTTGTC-3′ (SEQ ID NO: 18)(sense) and 5′-[…] -3′ (SEQ ID NO: 19)(antisense); H0-1 (284 bp), 5′-CAGTCGCCTCCAGAGTTTCC -3′ (SEQ ID NO: 20)(sense) and 5′- TACAAGGAGGCCATCACCAGC-3′ (SEQ ID NO: 21)(antisense); GCL-M (280 bp), 5′- CTGCTAAACTGTTCATTGTAGG-3′ (SEQ ID NO: 22)(sense) and 5′- CTA TTG GGT TIT ACC TGT G-3′ (SEQ ID NO: 23)(antisense); GCL-C (213 bp), 5′- GTC TIC AGG TGA ACA TIC CAA GC-3′ (SEQ ID NO: 24)(sense) and 5′- TGTTCTTCAGGGGCTCCAGTC-3′ (SEQ 10 NO: 25)(antisense); and NQO1 (212 bp), 5′- GTG TAC AGC ATI GGC CAC AC-3′ (SEQ 10 NO: 26)(sense) and 5′AAATGATGGCCCACAGAAAG-3′ (SEQ ID NO: 27)(antisense).
Mice were allowed free access to food containing 0.03% CA for a week. Their brains were then removed, and extracts were prepared and measured for GSH and GSSG levels. Under these conditions, CA increased both total GSH+GSSG and the ratio of GSH/GSSG (FIG. 6). […] Therefore, we concluded that orally-administered CA could not only reach the brain but was also effective in activating potentially neuroprotective pathways.

T1 sequence (Q9Z2X8 whole entry): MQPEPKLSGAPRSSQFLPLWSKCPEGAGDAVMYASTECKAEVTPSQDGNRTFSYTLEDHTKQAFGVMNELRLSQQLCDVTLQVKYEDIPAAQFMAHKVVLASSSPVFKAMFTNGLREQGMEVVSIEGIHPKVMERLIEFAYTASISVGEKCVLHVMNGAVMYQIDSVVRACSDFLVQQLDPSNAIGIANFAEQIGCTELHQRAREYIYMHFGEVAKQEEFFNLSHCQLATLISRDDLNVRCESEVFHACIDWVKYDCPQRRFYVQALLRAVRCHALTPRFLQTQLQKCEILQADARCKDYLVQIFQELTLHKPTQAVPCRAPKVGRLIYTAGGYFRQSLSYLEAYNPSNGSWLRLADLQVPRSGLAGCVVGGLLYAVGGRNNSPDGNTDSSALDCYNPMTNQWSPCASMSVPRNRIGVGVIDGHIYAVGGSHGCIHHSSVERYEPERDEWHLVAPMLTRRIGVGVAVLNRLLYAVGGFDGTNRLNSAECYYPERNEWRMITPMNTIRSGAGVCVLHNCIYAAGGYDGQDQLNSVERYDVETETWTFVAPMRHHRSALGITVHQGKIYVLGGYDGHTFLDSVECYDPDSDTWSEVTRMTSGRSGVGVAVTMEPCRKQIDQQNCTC

| Structure (SMILES) | HO-1 protein levels over baseline (HO-1 protein) | activity of p3xMEF2luc (MEF2-binding site) | complex formation with Keap1 (Keap1) | induction of phase 2 enzymes HO-1 and γ-GCS in brain (HO-1 and γ-GCS) |
| --- | --- | --- | --- | --- |
| COC(=O)CCCCC/C=C1/C(=O)C=C[C@H]1CCCCCCc1ccc(C)cc1 [NEPP11] | approximately five-fold | no effect | – | – |
| CC(C)c1cc2c(c(O)c1O)[C@@]1(C(=O)O)CCCC(C)(C)[C@@H]1CC2 [CA, carnosic acid] | – | – | formed CA/Keap1 complexes | significant induction |

Reference: patent US8466311B2, “Neuroprotective compositions and methods” (Sanford-Burnham Medical Research Institute, priority 2006, dated 2013)
